Species: Rattus norvegicus
Assay: DrugMatrix - Regimen: Daily Repeat
Format: toxicity, organism-based, Sprague-Dawley
Parameters: regimen Daily Repeat, gender Male, age 6-8 weeks
Conditions: in vivo, iv, vehicle 100 % SALINE; for ABSOLUTE BASOPHIL / ABSOLUTE EOSINOPHIL / ABSOLUTE LYMPHOCYTE / ABSOLUTE MONOCYTE / ABSOLUTE SEGMENTED NEUTROPHIL / BASOPHIL / EOSINOPHIL / ERYTHROCYTE COUNT / HEMATOCRIT / HEMOGLOBIN / LEUKOCYTE COUNT / LYMPHOCYTE / MEAN CORPUSCULAR HEMOGLOBIN / MEAN CORPUSCULAR HEMOGLOBIN CONCENTRATION / MEAN CORPUSCULAR VOLUME / MONOCYTE / NEUTROPHIL / NUCLEATED RED BLOOD CELLS / PLATELET COUNT: tissue Blood; for ALANINE AMINOTRANSFERASE / ALBUMIN / ALKALINE PHOSPHATASE / ASPARTATE AMINOTRANSFERASE / BLOOD UREA NITROGEN / CARBON DIOXIDE / CHLORIDE / CHOLESTEROL / CREATINE PHOSPHOKINASE / CREATININE / GLUCOSE / LACTATE DEHYDROGENASE / LIPASE / PHOSPHORUS / POTASSIUM / SODIUM / TOTAL BILIRUBIN / TOTAL PROTEIN / URIC ACID: tissue Plasma
[1] = 12 mg/kg, 120 h, dose level High, time 5 day
[2] = […], 72 h, dose 1.2 mg/Kg, dose level Low, time 3 day
[3] = […], 120 h, dose 1.2 mg/Kg, dose level Low, time 5 day

Cc1c(N)nc([C@H](CC(N)=O)NC[C@H](N)C(N)=O)nc1C(=O)N[C@H](C(=O)N[C@H](C)[C@@H](O)[C@H](C)C(=O)N[C@H](C(=O)NCCc1nc(-c2nc(C(=O)NCCC[S+](C)C)cs2)cs1)[C@@H](C)O)[C@@H](O[C@@H]1O[C@@H](CO)[C@@H](O)[C@H](O)[C@@H]1O[C@H]1O[C@H](CO)[C@@H](O)[C@H](OC(N)=O)[C@@H]1O)c1c[nH]cn1.[Br-] [BLEOMYCIN A2]
ABSOLUTE BASOPHIL [1]: 0 CELLS/uL | ABSOLUTE EOSINOPHIL [1]: 50 CELLS/uL | ABSOLUTE LYMPHOCYTE [1]: 10142.67 CELLS/uL | ABSOLUTE MONOCYTE [1]: 392.67 CELLS/uL | ABSOLUTE SEGMENTED NEUTROPHIL [1]: 1914.67 CELLS/uL | BASOPHIL [1]: 0% | EOSINOPHIL [1]: 0.33% | ERYTHROCYTE COUNT [1]: 6.36 x10E6/uL | HEMATOCRIT [1]: 38.97% | HEMOGLOBIN [1]: 15.17 G/DL | LEUKOCYTE COUNT [1]: 12.5 x10E3/uL | LYMPHOCYTE [1]: 80% | MEAN CORPUSCULAR HEMOGLOBIN [1]: 23.87 pg | MEAN CORPUSCULAR HEMOGLOBIN CONCENTRATION [1]: 38.93 G/DL | MEAN CORPUSCULAR VOLUME [1]: 61.27 fL | MONOCYTE [1]: 3.33% | NEUTROPHIL [1]: 16.33% | NUCLEATED RED BLOOD CELLS [1]: 0.33 /100WBC | PLATELET COUNT [1]: 1342 x10E3/uL | ALANINE AMINOTRANSFERASE [1]: 41.67 u/L | ALBUMIN [1]: 3.83 G/DL | ALKALINE PHOSPHATASE [1]: 202.67 u/L | ASPARTATE AMINOTRANSFERASE [1]: 100.67 u/L | BLOOD UREA NITROGEN [1]: 16.67 mg/dL | CARBON DIOXIDE [1]: 29 mmol/L | CHLORIDE [1]: 101 MEQ/L | CHOLESTEROL [1]: 54.33 mg/dL | CREATINE PHOSPHOKINASE [1]: 1017.67 u/L | CREATININE [1]: 0.13 mg/dL | GLUCOSE [1]: 145.67 mg/dL | LACTATE DEHYDROGENASE [1]: 563.33 u/L | LIPASE [1]: 10 u/L | PHOSPHORUS [1]: 10.83 mg/dL | POTASSIUM [1]: 6.11 MEQ/L | SODIUM [1]: 142.27 MEQ/L | TOTAL BILIRUBIN [1]: 0.1 mg/dL | TOTAL PROTEIN [1]: 6 G/DL | URIC ACID [1]: 1.3 mg/dL | ABSOLUTE BASOPHIL [2]: 0 CELLS/uL | ABSOLUTE EOSINOPHIL [2]: 212 CELLS/uL | ABSOLUTE LYMPHOCYTE [2]: 11289 CELLS/uL | ABSOLUTE MONOCYTE [2]: 312.33 CELLS/uL | ABSOLUTE SEGMENTED NEUTROPHIL [2]: 1786.67 CELLS/uL | BASOPHIL [2]: 0% | EOSINOPHIL [2]: 1.67% | ERYTHROCYTE COUNT [2]: 5.13 x10E6/uL | HEMATOCRIT [2]: 35.1% | HEMOGLOBIN [2]: 13.93 G/DL | LEUKOCYTE COUNT [2]: 13.6 x10E3/uL | LYMPHOCYTE [2]: 83% | MEAN CORPUSCULAR HEMOGLOBIN [2]: 27.23 pg | MEAN CORPUSCULAR HEMOGLOBIN CONCENTRATION [2]: 39.73 G/DL | MEAN CORPUSCULAR VOLUME [2]: 68.43 fL | MONOCYTE [2]: 2.33% | NEUTROPHIL [2]: 13% | NUCLEATED RED BLOOD CELLS [2]: 0 /100WBC | PLATELET COUNT [2]: 1111 x10E3/uL | ALANINE AMINOTRANSFERASE [2]: 40.67 u/L | ALBUMIN [2]: 4.37 G/DL | ALKALINE PHOSPHATASE [2]: 464.33 u/L | ASPARTATE AMINOTRANSFERASE [2]: 82.33 u/L | BLOOD UREA NITROGEN [2]: 13.33 mg/dL | CARBON DIOXIDE [2]: 25.33 mmol/L | CHLORIDE [2]: 100 MEQ/L | CHOLESTEROL [2]: 69.33 mg/dL | CREATINE PHOSPHOKINASE [2]: 261.33 u/L | CREATININE [2]: 0.18 mg/dL | GLUCOSE [2]: 184.67 mg/dL | LACTATE DEHYDROGENASE [2]: 180 u/L | LIPASE [2]: 10.67 u/L | PHOSPHORUS [2]: 11.87 mg/dL | POTASSIUM [2]: 5.72 MEQ/L | SODIUM [2]: 144 MEQ/L | TOTAL BILIRUBIN [2]: 0.23 mg/dL | TOTAL PROTEIN [2]: 5.97 G/DL | URIC ACID [2]: 1.6 mg/dL | ABSOLUTE BASOPHIL [3]: 0 CELLS/uL | ABSOLUTE EOSINOPHIL [3]: 37 CELLS/uL | ABSOLUTE LYMPHOCYTE [3]: 10260.33 CELLS/uL | ABSOLUTE MONOCYTE [3]: 119.33 CELLS/uL | ABSOLUTE SEGMENTED NEUTROPHIL [3]: 1383.33 CELLS/uL | BASOPHIL [3]: 0% | EOSINOPHIL [3]: 0.33% | ERYTHROCYTE COUNT [3]: 5.63 x10E6/uL | HEMATOCRIT [3]: 35.3% | HEMOGLOBIN [3]: 14.17 G/DL | LEUKOCYTE COUNT [3]: 11.8 x10E3/uL | LYMPHOCYTE [3]: 87% | MEAN CORPUSCULAR HEMOGLOBIN [3]: 25.2 pg | MEAN CORPUSCULAR HEMOGLOBIN CONCENTRATION [3]: 40.17 G/DL | MEAN CORPUSCULAR VOLUME [3]: 62.77 fL | MONOCYTE [3]: 1% | NEUTROPHIL [3]: 11.67% | NUCLEATED RED BLOOD CELLS [3]: 0 /100WBC | PLATELET COUNT [3]: 1110.33 x10E3/uL | ALANINE AMINOTRANSFERASE [3]: 46.33 u/L | ALBUMIN [3]: 4.17 G/DL | ALKALINE PHOSPHATASE [3]: 346 u/L | ASPARTATE AMINOTRANSFERASE [3]: 85 u/L | BLOOD UREA NITROGEN [3]: 17 mg/dL | CARBON DIOXIDE [3]: 32.33 mmol/L | CHLORIDE [3]: 99.67 MEQ/L | CHOLESTEROL [3]: 72.33 mg/dL | CREATINE PHOSPHOKINASE [3]: 387 u/L | CREATININE [3]: 0.22 mg/dL | GLUCOSE [3]: 142.67 mg/dL | LACTATE DEHYDROGENASE [3]: 421.33 u/L | LIPASE [3]: 10.67 u/L | PHOSPHORUS [3]: 12.3 mg/dL | POTASSIUM [3]: 6.05 MEQ/L | SODIUM [3]: 144.13 MEQ/L | TOTAL BILIRUBIN [3]: 0.17 mg/dL | TOTAL PROTEIN [3]: 6.1 G/DL | URIC ACID [3]: 1.27 mg/dL

From ChEMBL document CHEMBL3885881, “DrugMatrix”
